Experimental data reported in ChEMBL document CHEMBL6087429, “Synthesis of drimanyl indole fragments of drimentine alkaloids and their antibacterial activities” (2025).
In brackets after ≈: the same amount, converted by molar mass.

What was measured:
Format in all cases: functional
Staphylococcus aureus [1] = experiment: Antibacterial activity against Staphylococcus aureus ATCC 29213 assessed as inhibition of bacterial growth at 16 ug/ml
Pseudomonas aeruginosa = experiment: Antibacterial activity against Pseudomonas aeruginosa PA14 assessed as inhibition of bacterial growth
Ralstonia solanacearum [2] = experiment: Antibacterial activity against Ralstonia solanacearum Px1 assessed as inhibition of bacterial growth at 16 ug/ml
Escherichia coli = experiment: Antibacterial activity against Escherichia coli ATCC 25922 assessed as inhibition of bacterial growth
Ralstonia solanacearum [3] = experiment: Antibacterial activity against Ralstonia solanacearum Px1 assessed as inhibition of bacterial growth
Staphylococcus aureus [4] = experiment: Antibacterial activity against Staphylococcus aureus ATCC 29213 assessed as inhibition of bacterial growth

Compound	inhibition at 16 µg/mL (Staphylococcus aureus [1]) [%]	inhibition (INH) (Pseudomonas aeruginosa) [%]	inhibition at 16 µg/mL (Ralstonia solanacearum [2]) [%]	inhibition (INH) (Escherichia coli) [%]	MIC (Ralstonia solanacearum [3]) [µg/mL]	MIC (Staphylococcus aureus [4]) [µg/mL]
CC1=C(Cc2c(C)[nH]c3ccccc23)[C@@]2(C)CCCC(C)(C)[C@@H]2CC1	0	0	92	0		
CCn1c(C)c(C[C@@H]2[C@@]3(C)CCCC(C)(C)[C@@H]3CC[C@@]2(C)O)c2ccccc21	0	0	0	0		
CN[C@H](CC(C)C)C(=O)N[C@H]1C(=O)N[C@@H](CC(N)=O)C(=O)N[C@H]2C(=O)N[C@H]3C(=O)N[C@H](C(=O)N[C@H](C(=O)O)c4cc(O)cc(O)c4-c4cc3ccc4O)[C@H](O)c3ccc(c(Cl)c3)Oc3cc2cc(c3O[C@@H]2O[C@H](CO)[C@@H](O)[C@H](O)[C@H]2O[C@H]2C[C@](C)(N)[C@H](O)[C@H](C)O2)Oc2ccc(cc2Cl)[C@H]1O [VANCOMYCIN]	> 99		> 99		< 0.5	
C=C[C@](C)(O)CC[C@@H]1[C@@]2(C)CCCC(C)(C)[C@@H]2CC[C@@]1(C)O [SCLAREOL]	> 99	0	65	0	32 (≈ 104 µM)	16 (≈ 51.9 µM)
S=c1[nH]nc(NCNc2n[nH]c(=S)s2)s1	0		0		128 (≈ 460 µM)	256 (≈ 919 µM)
Cc1c(C[C@@H]2[C@@]3(C)CCCC(C)(C)[C@@H]3CC[C@@]2(C)O)c2ccccc2n1-c1ccc(C(F)(F)F)cc1	0	0	0	0		
Cc1c(C[C@@H]2[C@@]3(C)CCCC(C)(C)[C@@H]3CC[C@@]2(C)O)c2ccccc2n1-c1ccc(F)cc1	0	0	0	0		
Cc1ccc(Cn2c(C)c(C[C@@H]3[C@@]4(C)CCCC(C)(C)[C@@H]4CC[C@@]3(C)O)c3ccccc32)cc1	0	0	0	0		
Cc1c(C[C@@H]2[C@@]3(C)CCCC(C)(C)[C@@H]3CC[C@@]2(C)O)c2ccccc2n1Cc1ccc(C(F)(F)F)cc1	0	0	0	0		
C=CCCn1c(C)c(C[C@@H]2[C@@]3(C)CCCC(C)(C)[C@@H]3CC[C@@]2(C)O)c2ccccc21	0	0	0	0		
Cc1c(C[C@@H]2[C@@]3(C)CCCC(C)(C)[C@@H]3CC[C@@]2(C)O)c2ccccc2n1Cc1ccc(F)cc1	0	0	0	0		
Cc1c(C[C@@H]2[C@@]3(C)CCCC(C)(C)[C@@H]3CC[C@@]2(C)O)c2ccccc2n1-c1ccccc1	0	0	0	0		
CC1=CC[C@H]2C(C)(C)CCC[C@]2(C)[C@H]1Cc1c(C)[nH]c2ccccc12	0	0	95	0		
Cc1ccc(-n2c(C)c(C[C@@H]3[C@@]4(C)CCCC(C)(C)[C@@H]4CC[C@@]3(C)O)c3ccccc32)cc1	0	0	0	0		
C=CCn1c(C)c(C[C@@H]2[C@@]3(C)CCCC(C)(C)[C@@H]3CC[C@@]2(C)O)c2ccccc21	0	0	0	0		
Cc1c2c3ccccc3n1[C@]1(C)CC[C@H]3C(C)(C)CCC[C@]3(C)[C@H]1C2	0	0	0	0		
Cc1[nH]c2ccccc2c1C[C@@H]1[C@@]2(C)CCCC(C)(C)[C@@H]2CC[C@@]1(C)O	93	0	> 99	0	8 (≈ 22.6 µM)	
Cc1c(C[C@@H]2[C@@]3(C)CCCC(C)(C)[C@@H]3CC[C@@]2(C)O)c2ccccc2n1C(=O)c1ccccc1	0	0	0	0		
C=C1CC[C@H]2C(C)(C)CCC[C@]2(C)[C@H]1Cc1c(C)[nH]c2ccccc12	0	0	> 99	0	16 (≈ 47.7 µM)	
Cc1c(C[C@@H]2[C@@]3(C)CCCC(C)(C)[C@@H]3CC[C@@]2(C)O)c2ccccc2n1C	0	0	0	0		
Cc1c(C[C@@H]2[C@@]3(C)CCCC(C)(C)[C@@H]3CC[C@@]2(C)O)c2ccccc2n1Cc1ccccc1	0	0	0	0		
